Key:
Assay type in all cases: cell-based, human
[1] = system: NCI 58 cell line panel; assay: NCI one-dose SRB assay, whole panel / subpanel summary; conditions: for inhibition at 10 µM: Homo sapiens, one dose, read-out: mean inhibition (mean % growth inhibition over NCI 58 cell line panel); for Mean Growth Percent: One Dose Mean Graph, 1.00E-5 Molar
Procedure: (§1) The structures of all the newly prepared pyridine-ureas 8a–n were submitted to the National Cancer Institute (NCI) Developmental Therapeutic Program. Eight compounds 8b, 8d, 8e, 8i, 8j and 8l–n were selected to be examined for their in vitro growth inhibitory activity. The anticancer assays were carried out according to the protocol of the Drug Evaluation Branch, NCI, Bethesda. The selected pyridine-ureas were tested at one dose primary anticancer assay against a panel of approximately 58 cancer lines (concentration 10^−5 M). The tested human cancer cell lines emerged from nine different cancer subtypes: leukemia, colon, melanoma, ovarian, lung, CNS, renal, breast and prostate cancers. The sulforhodamine B (SRB) protein assay was adopted to estimate the cell viability and growth. The results were reported as mean-graph of the percentage growth of the treated cells, and presented as percentage growth inhibition (GI%) caused by the test compounds (Table 2).
(§2) The anticancer assays were performed in accordance with the protocol of the Drug Evaluation Branch, NCI, Bethesda. A 48 h drug exposure protocol was used and sulforhodamine B (SRB) protein assay was applied to estimate the cell viability and growth, as reported earlier.

[2] = system: UO-31; assay: NCI one-dose SRB assay (Renal Cancer); conditions: for inhibition at 10 µM: Homo sapiens, UO-31, 10 μM, read-out: Percentage growth inhibition (GI%); for Growth Percent: UO-31, 1.00E-5 Molar
Procedure: as §1, §2

[3] = system: SN12C; assay: NCI one-dose SRB assay (Renal Cancer); conditions: for Growth Percent: 1.00E-5 Molar; for inhibition at 10 µM: Homo sapiens, read-out: Percentage growth inhibition (GI%)
Procedure: as §1, §2

[4] = system: A498; assay: NCI one-dose SRB assay (Renal Cancer); conditions: for Growth Percent: A498, 1.00E-5 Molar; for inhibition at 10 µM: Homo sapiens, A498, 10 μM, read-out: Percentage growth inhibition (GI%)
Procedure: as §1, §2

[5] = system: TK-10; assay: NCI one-dose SRB assay (Renal Cancer); conditions: for inhibition at 10 µM: Homo sapiens, TK-10, 10 μM, read-out: Percentage growth inhibition (GI%); for Growth Percent: TK-10, 1.00E-5 Molar
Procedure: as §1, §2

[6] = system: RXF 393; assay: NCI one-dose SRB assay (Renal Cancer); conditions: for inhibition at 10 µM: Homo sapiens, RXF 393, 10 μM, read-out: Percentage growth inhibition (GI%); for Growth Percent: RXF 393, 1.00E-5 Molar
Procedure: as §1, §2

[7] = system: 786-0; assay: NCI one-dose SRB assay (Renal Cancer); conditions: for Growth Percent: 786-0, 1.00E-5 Molar; for inhibition at 10 µM: Homo sapiens, 786-0, 10 μM, read-out: Percentage growth inhibition (GI%)
Procedure: as §1, §2

[8] = system: LOX IMVI; assay: NCI one-dose SRB assay (Melanoma); conditions: for Growth Percent: 1.00E-5 Molar; for inhibition at 10 µM: Homo sapiens, read-out: Percentage growth inhibition (GI%)
Procedure: as §1, §2

[9] = system: UACC-257; assay: NCI one-dose SRB assay (Melanoma); conditions: for inhibition at 10 µM: Homo sapiens, UACC-257, 10 μM, read-out: Percentage growth inhibition (GI%); for Growth Percent: UACC-257, 1.00E-5 Molar
Procedure: as §1, §2

[10] = system: SK-MEL-28; assay: NCI one-dose SRB assay (Melanoma); conditions: for inhibition at 10 µM: Homo sapiens, SK-MEL-28, 10 μM, read-out: Percentage growth inhibition (GI%); for Growth Percent: SK-MEL-28, 1.00E-5 Molar
Procedure: as §1, §2

[11] = system: MALME-3M; assay: NCI one-dose SRB assay (Melanoma); conditions: for Growth Percent: 1.00E-5 Molar; for inhibition at 10 µM: Homo sapiens, read-out: Percentage growth inhibition (GI%)
Procedure: as §1, §2

[12] = system: PC-3; assay: NCI one-dose SRB assay (Prostate); conditions: for inhibition at 10 µM: Homo sapiens, PC-3, 10 μM, read-out: Percentage growth inhibition (GI%); for Growth Percent: PC-3, 1.00E-5 Molar
Procedure: as §1, §2

[13] = system: DU-145; assay: NCI one-dose SRB assay (Prostate); conditions: for Growth Percent: DU-145, 1.00E-5 Molar; for inhibition at 10 µM: Homo sapiens, DU-145, 10 μM, read-out: Percentage growth inhibition (GI%)
Procedure: as §1, §2

[14] = system: HOP-92; assay: NCI one-dose SRB assay (Non-Small Cell Lung Cancer); conditions: for Growth Percent: HOP-92, 1.00E-5 Molar; for inhibition at 10 µM: Homo sapiens, HOP-92, 10 μM, read-out: Percentage growth inhibition (GI%)
Procedure: as §1, §2

[15] = system: EKVX; assay: as above; conditions: for Growth Percent: 1.00E-5 Molar; for inhibition at 10 µM: Homo sapiens, read-out: Percentage growth inhibition (GI%)
Procedure: as §1, §2

[16] = system: HOP-62; assay: as above; conditions: for Growth Percent: HOP-62, 1.00E-5 Molar; for inhibition at 10 µM: Homo sapiens, HOP-62, 10 μM, read-out: Percentage growth inhibition (GI%)
Procedure: as §1, §2

[17] = system: NCI-H460; assay: as above; conditions: for inhibition at 10 µM: Homo sapiens, NCI-H460, 10 μM, read-out: Percentage growth inhibition (GI%); for Growth Percent: NCI-H460, 1.00E-5 Molar
Procedure: as §1, §2

[18] = system: NCI-H23; assay: as above; conditions: for inhibition at 10 µM: Homo sapiens, NCI-H23, 10 μM, read-out: Percentage growth inhibition (GI%); for Growth Percent: NCI-H23, 1.00E-5 Molar
Procedure: as §1, §2

[19] = system: NCI-H522; assay: as above; conditions: for inhibition at 10 µM: Homo sapiens, NCI-H522, 10 μM, read-out: Percentage growth inhibition (GI%); for Growth Percent: NCI-H522, 1.00E-5 Molar
Procedure: as §1, §2

[20] = system: NCI-H322M; assay: as above; conditions: for Growth Percent: 1.00E-5 Molar; for inhibition at 10 µM: Homo sapiens, read-out: Percentage growth inhibition (GI%)
Procedure: as §1, §2

[21] = system: A549/ATCC; assay: as above; conditions: for Growth Percent: 1.00E-5 Molar; for inhibition at 10 µM: Homo sapiens, read-out: Percentage growth inhibition (GI%)
Procedure: as §1, §2

[22] = system: NCI-H226; assay: as above; conditions: for inhibition at 10 µM: Homo sapiens, NCI-H226, 10 μM, read-out: Percentage growth inhibition (GI%); for Growth Percent: NCI-H226, 1.00E-5 Molar
Procedure: as §1, §2

[23] = system: HL-60(TB); assay: NCI one-dose SRB assay (Leukemia); conditions: for Growth Percent: 1.00E-5 Molar; for inhibition at 10 µM: Homo sapiens, read-out: Percentage growth inhibition (GI%)
Procedure: as §1, §2

[24] = system: K-562; assay: NCI one-dose SRB assay (Leukemia); conditions: for inhibition at 10 µM: Homo sapiens, K562, K-562, 10 μM, read-out: Percentage growth inhibition (GI%); for Growth Percent: K-562, 1.00E-5 Molar
Procedure: as §1, §2

[25] = system: SR; assay: NCI one-dose SRB assay (Leukemia); conditions: for Growth Percent: 1.00E-5 Molar; for inhibition at 10 µM: Homo sapiens, read-out: Percentage growth inhibition (GI%)
Procedure: as §1, §2

[26] = system: MOLT-4; assay: NCI one-dose SRB assay (Leukemia); conditions: for inhibition at 10 µM: Homo sapiens, MOLT-4, 10 μM, read-out: Percentage growth inhibition (GI%); for Growth Percent: MOLT-4, 1.00E-5 Molar
Procedure: as §1, §2

[27] = system: RPMI-8226; assay: NCI one-dose SRB assay (Leukemia); conditions: for inhibition at 10 µM: Homo sapiens, RPMI-8226, 10 μM, read-out: Percentage growth inhibition (GI%); for Growth Percent: RPMI-8226, 1.00E-5 Molar
Procedure: as §1, §2

[28] = system: CCRF-CEM; assay: NCI one-dose SRB assay (Leukemia); conditions: for Growth Percent: 1.00E-5 Molar; for inhibition at 10 µM: Homo sapiens, read-out: Percentage growth inhibition (GI%)
Procedure: as §1, §2

COc1cccc(NC(=O)Nc2ccc(-c3ccc(OC)c(OC)c3)nc2C)c1 [Compound 8m, 1-(6-(3,4-Dimethoxyphenyl)-2-methylpyridin-3-yl)-3-(3-methoxyphenyl) Urea]
inhibition at 10 µM [1]: 8% | Mean Growth Percent [1]: 92.83% | inhibition at 10 µM [2]: 20% | Growth Percent [2]: 80.45% | Growth Percent [3]: 93.61% | inhibition at 10 µM [3]: < 10% | Growth Percent [4]: 85.18% | inhibition at 10 µM [4]: 15% | inhibition at 10 µM [5]: < 10% | Growth Percent [5]: 96.16% | inhibition at 10 µM [6]: < 10% | Growth Percent [6]: 108.45% | Growth Percent [7]: 92.27% | inhibition at 10 µM [7]: < 10% | Growth Percent [8]: 92.56% | inhibition at 10 µM [8]: < 10% | inhibition at 10 µM [9]: < 10% | Growth Percent [9]: 97.19% | inhibition at 10 µM [10]: < 10% | Growth Percent [10]: 99.69% | Growth Percent [11]: 92.61% | inhibition at 10 µM [11]: < 10% | inhibition at 10 µM [12]: 41% | Growth Percent [12]: 59.08% | Growth Percent [13]: 99.53% | inhibition at 10 µM [13]: < 10% | Growth Percent [14]: 81.00% | inhibition at 10 µM [14]: 19% | Growth Percent [15]: 100.68% | inhibition at 10 µM [15]: < 10% | Growth Percent [16]: 94.75% | inhibition at 10 µM [16]: < 10% | inhibition at 10 µM [17]: < 10% | Growth Percent [17]: 102.12% | inhibition at 10 µM [18]: 10% | Growth Percent [18]: 90.97% | inhibition at 10 µM [19]: 47% | Growth Percent [19]: 53.07% | Growth Percent [20]: 95.22% | inhibition at 10 µM [20]: < 10% | Growth Percent [21]: 90.54% | inhibition at 10 µM [21]: 10% | inhibition at 10 µM [22]: < 10% | Growth Percent [22]: 94.44% | Growth Percent [23]: 73.33% | inhibition at 10 µM [23]: 27% | inhibition at 10 µM [24]: 22% | Growth Percent [24]: 78.49% | Growth Percent [25]: 82.12% | inhibition at 10 µM [25]: 18% | inhibition at 10 µM [26]: 35% | Growth Percent [26]: 65.34% | inhibition at 10 µM [27]: 26% | Growth Percent [27]: 74.18% | Growth Percent [28]: 89.11% | inhibition at 10 µM [28]: 11%

COc1ccc(-c2ccc(NC(=O)Nc3cccc(C(F)(F)F)c3)c(C)n2)cc1 [Compound 8b, 1-(6-(4-Methoxyphenyl)-2-methylpyridin-3-yl)-3-(3-(trifluoromethyl)phenyl) Urea]
inhibition at 10 µM [1]: 43% | Mean Growth Percent [1]: 57.47% | inhibition at 10 µM [2]: 45% | Growth Percent [2]: 55.08% | Growth Percent [3]: 67.99% | inhibition at 10 µM [3]: 33% | Growth Percent [4]: 52.08% | inhibition at 10 µM [4]: 48% | inhibition at 10 µM [5]: 24% | Growth Percent [5]: 76.66% | inhibition at 10 µM [6]: 15% | Growth Percent [6]: 85.91% | Growth Percent [7]: 77.34% | inhibition at 10 µM [7]: 23% | Growth Percent [8]: 47.72% | inhibition at 10 µM [8]: 53% | inhibition at 10 µM [9]: 39% | Growth Percent [9]: 61.43% | inhibition at 10 µM [10]: 31% | Growth Percent [10]: 69.29% | Growth Percent [11]: 90.58% | inhibition at 10 µM [11]: 10% | inhibition at 10 µM [12]: 76% | Growth Percent [12]: 24.40% | Growth Percent [13]: 68.79% | inhibition at 10 µM [13]: 32% | Growth Percent [14]: 68.79% | inhibition at 10 µM [14]: 32% | Growth Percent [15]: 41.42% | inhibition at 10 µM [15]: 59% | Growth Percent [16]: 67.99% | inhibition at 10 µM [16]: 33% | inhibition at 10 µM [17]: 52% | Growth Percent [17]: 48.67% | inhibition at 10 µM [18]: 53% | Growth Percent [18]: 47.63% | inhibition at 10 µM [19]: 72% | Growth Percent [19]: 28.48% | Growth Percent [20]: 64.44% | inhibition at 10 µM [20]: 36% | Growth Percent [21]: 42.47% | inhibition at 10 µM [21]: 58% | inhibition at 10 µM [22]: 42% | Growth Percent [22]: 58.09% | Growth Percent [23]: 49.75% | inhibition at 10 µM [23]: 51% | inhibition at 10 µM [24]: 68% | Growth Percent [24]: 32.55% | Growth Percent [25]: 36.30% | inhibition at 10 µM [25]: 64% | inhibition at 10 µM [26]: 67% | Growth Percent [26]: 33.74% | inhibition at 10 µM [27]: 78% | Growth Percent [27]: 22.58% | Growth Percent [28]: 42.94% | inhibition at 10 µM [28]: 58%

Source: article PMC6100082, “Pyridine-Ureas as Potential Anticancer Agents: Synthesis and In Vitro Biological Evaluation” (Molecules : A Journal of Synthetic Chemistry and Natural …, 2018)
